The text below walks through data of patent EP3409278B1, “HETEROCYCLIC PROTEIN KINASE INHIBITORS” (Tolero Pharmaceuticals, Inc., priority 2011, dated 2013).

In series [1] the test system is ML-2 cells (wild-type FLT3). Description: ML-2 mouse xenograft study. Type of series: in vivo. The settings on record: ML-2 xenografts (wild-type FLT3). An excerpt: (§1) Male and female Nu/Nu mice were purchased from Harlan Sprague Dawley (Indianapolis, IN). Female Nu/Nu mice were used for all xenograft evaluations with the exception of the PC-3 xenografts where male Nu/Nu mice were used. Cell lines were expanded In vitro in complete media, and if adherent were harvested by trypsin-EDTA, centrifuged and resuspended in PBS 1:1 with Matrigel (BD Bioscienes). Cells were inoculated subcutaneously in the right hind flank of mice. When tumors reached 100-200 mm^3 by caliper measurement, mice were randomized and dosing of SGI-9481 or vehicle control began and continued every day for 5 days (QDx5) with 2 days off for 18-21 days. Tumor volumes and body weights were determined twice a week, and tumor weights were measured at the completion of the translational xenograft studies.

Another series concerns PC-3. Description: Established PC-3 mouse xenograft tumors. The series is classed as in vivo.
Source text: as §1

A further series has as its system UM-UC-3. Kind of series: Established UM-UC-3 mouse xenograft tumors. The series is classed as in vivo.
Source text: as §1

The test system of a further series is 22RV1/PIM-1. Description: 22RV1/PIM-1 over-expression tumor xenograft. The series is classed as in vivo, mouse.
Source text: as §1
(§2) . The prostate cancer cell line 22RV1 engineered to over-express PIM-1 as previously described (Mumenthaler, et al, Mol. Cancer Ther., 2009, 8(10)2882-93) was evaluated in vivo. A second model engineered to over-express PIM-2 was established using the NIH-3T3 mouse fibroblast cell line. […]. […].

The next series concerns MV-4-11 (FLT3-ITD). Description: MV-4-11 mouse xenograft study. The series is classed as in vivo. The settings on record: MV-4-11 xenografts (FLT3-ITD).
Source text: as §1

In a further series the test system is UM-UC-3 cells. Kind of series: Colony formation assay, UM-UC-3. The series is classed as cell-based. Here is the method: (§3) For shRNA growth experiments, 500 UM-UC-3 cells were seeded in a 12-well plate 48 hours post-transduction and cultured for 8-10 days at 37°C in 5% CO2. Cells were fixed with 4% paraformaldehyde in PBS, washed twice with PBS, and stained with a crystal violet solution (1% crystal violet, 10% ethanol in water). Stained cells were washed thrice with water, and imaged after drying on a GelCount colony counter (Oxford Optronix Ltd., Oxford, UK). Total staining intensity per well was determined by lysis of cells with 200 µl of Triton X-100 lysis buffer (1% Triton X-100, 50 mM Tris-HCl pH 7.4, 150 mM NaCl, 1 mM EDTA). Lysates (100 µl) from each well were transferred to a clear 96-well plate and absorbance at 560 nm was determined on an Envision microplate reader. IC50 values were determined using GraphPad Prism software. For compound treated PC-3 and UM-UC-3, cells were seeded and stained as above, but were incubated with various concentrations of test compound or DMSO one day after seeding.
(§4) Translational models were also explored for PIM dependency using shRNA knockdown. The UM-UC-3 urinary epithelial bladder carcinoma cell line was used to verify and validate dependency on PIM-1 for growth.

The subject of a further series is PC-3 cells. Kind of series: Colony formation assay, PC-3. The series is classed as cell-based. The procedure: as §3, §4
For the next series, the system named is NIH-3T3/PIM-2. Description: NIH-3T3/PIM-2 over-expression tumor xenograft. The series is classed as in vivo, mouse.
Source text: as §1, §2

Series [2] has as its system phosphatidyl inositol-3-kinase (PI3K) family. Description: Selectivity study. Type of series: biochemical. To be noted: data not given.
Setting [3] is: 125 mg/kg, less than with 200 mg/kg.

Turning to `CC(C)(O)[C@H]1CC[C@H](Nc2ccc3ncc(-c4cccc(C(F)(F)F)c4)n3n2)CC1` [8-31], the tumor growth inhibition entry (in series [1]; with PC-3 (setting [3]); in the series with UM-UC-3 (setting [3])) was “significant tumor growth inhibition” in each case. Moreover, the “plasma and tumor tissue levels” value in the series with PC-3 (PC-3 tumor-burdened mice, 200 mg/kg) was “above the in vitro proliferation EC50”. The “body weight or gross adverse toxicity” value with PC-3 (oral dosing of 200 mg/kg) and in the series with UM-UC-3 (oral dosing of 200 mg/kg) was “no significant changes in body weight or gross adverse toxicity” each time. Also, the “tumor growth measured by volume (caliper) and by final tumor weight” value with PC-3 (oral dosing of 200 mg/kg) and with UM-UC-3 (oral dosing of 200 mg/kg) was “significantly reduced” in each case. The figures for the subcutaneous tumor growth entry in the series with 22RV1/PIM-1 (22RV1/PIM-1 + compound vs. 22RV1/PIM-1 + vehicle) and in the series on NIH-3T3/PIM-2 (NIH-3T3/PIM-2 + compound vs. NIH-3T3/PIM-2 + vehicle) were “significantly reduced” and “significantly inhibited”, respectively. Further, the body weight result with 22RV1/PIM-1 (22RV1/PIM-1 xenograft mice) and in the series with NIH-3T3/PIM-2 (NIH-3T3/PIM-2 xenograft mice) was “No significant changes in body weight” in each case. Further, the “effect on established xenografts” value in the series with MV-4-11 (FLT3-ITD) is “induced regressions”. The colony growth result in the series with UM-UC-3 cells and in the series with PC-3 cells was “reduced colony growth” throughout. The “inhibitory activity against multiple members of the PI3K family” value in series [2] was “inhibitory activity”.
